# Non-standard residues stand in square brackets, D forms with d. Residues, ends and D or L forms follow the SMILES beside them. *: point of attachment. Phenylacetyl(2,3,4,5,6-F5) = O=C(Cc1c(F)c(F)c(F)c(F)c1F)*; Phe(F5) = N[C@@H](Cc1c(F)c(F)c(F)c(F)c1F)C(=O)O; hArg = N=C(N)NCCCC[C@H](N)C(=O)O; 12Ado = NCCCCCCCCCCCC(=O)O; Nle = CCCC[C@H](N)C(=O)O; Orn = NCCC[C@H](N)C(=O)O; Abu = CC[C@H](N)C(=O)O; PhAc = O=C(Cc1ccccc1)*
# Tests used:
# J82 cells = assay: In vitro cell viability, urothelial cancer J82; format: cell-based, human; details: 5 μM, 72 h; relative to MIA602 = 1; Table 3A
# Protocol: (§1) The inhibitory effects of the various synthesized GHRH antagonists were tested in cell proliferation assays in various human cancer cell lines including stomach cancer (KATOIII, N87), colon cancer (HT-29), urothelial cancer (J82, RT4), pancreatic cancer (PANC-1, CFPAC-1), prostatic cancer (PC3), breast cancer (MX-1, HCC1806), ovarian cancer (SK-OV-3, OVCAR-3) and lung cancer (HCC827, H460).
# (§2) Cell culture. Human cancer cell lines including pancreatic (PANC-1 and CFPAC-1), lung (HCC827 and H460), stomach (NCI-N87 and KATOIII), urothelial (J82, RT4), prostatic (PC3), breast (MX-1 and HCC 1806), colorectal (HT-29), and ovarian (SK-OV-3 and OVCAR-3) were obtained from the American Type Culture Collection (ATCC) and cultured at 37° C. in a humidified 95% air/5% CO2 atmosphere in the medium recommended by ATCC.
# (§3) In vitro cell viability. Cell viability was analyzed as follows: cancer cells including pancreatic (PANC-1 and CFPAC-1), lung (HCC827 and H460), stomach (NCI-N87 and KATOIII), urothelial (J82, RT4), prostatic (PC3) and breast (MX-1 and HCC 1806), colorectal (HT-29) and ovarian (SK-OV-3 and OVCAR-3) were grown on 96 well plates to ˜60% confluence, the cells were starved for 24 h in culture medium containing 0.5% FBS. Cells were then treated with GHRH antagonists MIA602 AVR compounds at concentrations of 1, 2.5 or 5 μM, or vehicle (0.1% DMSO) in quintuplicates for 72 hours. The medium was replaced every 48 hours. Cell viability was measured using CellTiter 96 aqueous one solution kit (Promega). Inhibitory effects of tested AVR compounds in comparison to that of MIA602 are presented as inhibitory potency.
# (§4) Inhibitory effects of selected AVR compounds in comparison to that of MIA602 are presented as inhibitory potency (e.g., percentage of inhibition). […] The cell lines tested including lung cancer HCC827 (FIG. 2A), pancreatic cancer CFPAC-1 (FIG. 2B), stomach cancer N87 (FIG. 2C), colon cancer HT-29 (FIG. 2D), breast cancers MX-1 and HCC1806 (FIGS. 2E, F). Based on the results of cell proliferation assay after cancer cells were treated with antagonist at concentration of 5 μM for 72H, the relative inhibitory potency of AVR antagonists in comparison to MIA-602 is summarized in Table 3 A and B. Over 60 AVR compounds were tested in 12 cancer cell lines.
# CFPAC-1 cells = assay: In vitro cell viability, pancreatic cancer CFPAC-1; format: cell-based, human; details: 5 μM, 72 h; for Relative inhibitory potency, Pancreatic CFPAC-1: relative to MIA602 = 1, Table 3A
# Procedure, shortened: (§5)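 Cells grown to ~60% confluence and serum-starved 24 h in 0.5% FBS, then exposed to antagonists at 5 μM (some at 2 μM) for 72 h in quintuplicate, with medium replaced every 48 h. Viability read by CellTiter 96 AQueous One (MTS). Values are inhibition relative to MIA602.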
# HCC827 cells = assay: In vitro cell viability, lung cancer HCC827; format: cell-based, human; details: 5 μM, 72 h; for Relative inhibitory potency, Lung HCC827: relative to MIA602 = 1, Table 3A
# Procedure, shortened: as §5
# KATOIII cells = assay: In vitro cell viability, stomach cancer KATOIII; format: cell-based, human; details: 5 μM, 72 h; relative to MIA602 = 1; Table 3A
# Procedure, shortened: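 Cells grown to ~60% confluence, starved 24 h in 0.5% FBS medium, then exposed to antagonists at 1, 2.5 or 5 μM or 0.1% DMSO vehicle for 72 h, in quintuplicate with medium renewed every 48 h. Viability by CellTiter 96 AQueous One; reported as inhibitory potency relative to MIA602.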
# rat pituitary cells = assay: Inhibition of GHRH(1-29)NH2-stimulated GH release from rat pituitary cells (ELISA); format: cell-based; details: analog 20 nM
# Protocol: In vitro assessment of the antagonistic activity of GHRH analogs. Rats were decapitated and pituitaries were collected in pre-warmed HBSS (Hanks' Balanced Salt Solution). Tissue was then cut into small pieces and digested in HBSS medium containing 3% BSA, 50 μg/ml gentamycin and 0.5% collagenase for 50 minutes at 37° C. Cells were further dispersed by pipetting and passed through a 100 μm cell strainer with the addition of DMEM containing 50 μg/ml gentamycin, 10% horse serum and 2.5% FBS (growth medium). Cells were harvested at 475×g for 2 minutes, resuspended in fresh growth medium and seeded onto poly-D-lysine-coated 24-well plates (7 pituitaries/plate). Cells were left to recover for 4 days. Growth medium was then replaced with serum-free DMEM for 4 hours and GHRH analogs (at concentration of 20 nM) were added in DMEM containing 0.1% BSA for 30 minutes. Cells were replenished with medium containing the same concentration of the analogs and 1 nM GHRH(1-29)NH2 for 30 minutes. Medium from this step was collected, centrifuged at 800 g for 3 minutes and GH concentration was determined by ELISA (ALPCO Diagnostics, Mill Valley, CA) according to the manufacturer's instruction.
# NCI-N87 cells = assay: In vitro cell viability (CellTiter 96), stomach cancer N87; format: cell-based, human; details: 5 μM, 72 h; for Relative inhibitory potency, Stomach N87: relative to MIA602 = 1, Table 3A
# Protocol: as §1, §2, §3, §4
# (§6) Based on the results of cell proliferation assay after cancer cells were treated with antagonist at concentration of 5 µM for 72H, * at concentration of 2 µM for 72 H.
# PANC-1 cells = assay: In vitro cell viability, pancreatic cancer PANC-1; format: cell-based, human; details: 5 μM, 72 h; relative to MIA602 = 1; Table 3A
# Protocol: as §1, §2, §3, §4
# [1] = tested on: mouse lung fibroblasts (Mlg 2908); assay: Cellular respiration, Seahorse XF Cell Mito Stress Test; format: cell-based; details: 24 hours
# Protocol: Lung fibroblasts. Newborn mouse lung fibroblasts (Mlg 2908) were obtained from the American Type Culture Collection, Manassas, VA and cultured in Eagle's minimal essential medium. Cells were grown in 6-well plates before incubation with 1 or 5 μM MIA-602 or vehicle, RNA isolation, and oxygen consumption measurements.
# Cellular respiration. The effects of MIA-602 on mouse lung fibroblast oxygen consumption was measured using the Agilent Seahorse XF Cell Mito Stress Test (Agilent Technologies, Santa Clara, CA) (Divakaruni A, Paradyse A, Ferrick D, Murphy A, Jastroch M (2014). Methods in Enzymology 547:309-354). Fibroblasts were incubated with vehicle, 1 or 5 μM MIA-602 for 24 hours before measurement of oxygen consumption. One day before assay 80,000 fibroblasts were seeded into Seahorse 24-well plates (n=6 wells per condition). Basal respiration was established and oligomycin, FCCP and rotenone plus antimycin A were added sequentially to measure ATP production, uncoupled respiration; and, non-mitochondrial oxygen consumption (Wangpaichitr, Wu C, Li Y, Nguyen D, Kandemir H, Shah S, Chen S, Feun L, Prince J, Kuo M, Savaraj N (2017). Oncotarget 8(30):49275-49292).
# PC3 cells = assay: In vitro cell viability, prostatic cancer PC3; format: cell-based, human; details: 5 μM, 72 h; relative to MIA602 = 1; Table 3A
# Protocol: as §1, §2, §3
# Inhibitory effects of selected AVR compounds in comparison to that of MIA602 are presented as inhibitory potency (e.g., percentage of inhibition). […] The cell lines tested including lung cancer HCC827 (FIG. 2A), pancreatic cancer CFPAC-1 (FIG. 2B), stomach cancer N87 (FIG. 2C), colon cancer HT-29 (FIG. 2D), breast cancers MX-1 and HCC1806 (FIGS. 2E, F). […]
# MX-1 cells = assay: In vitro cell viability, breast cancer MX-1; format: cell-based, human; details: 5 μM, 72 h
# Protocol: as §1, §2, §3, §4, §6
# HT-29 cells = assay: In vitro cell viability, colon cancer HT-29; format: cell-based, human; details: 5 μM, 72 h; Table 3B
# Protocol: as §1, §2
# In vitro cell viability. Cell viability was analyzed as follows: cancer cells including pancreatic (PANC-1 and CFPAC-1), lung (HCC827 and H460), stomach (NCI-N87 and KATOIII), urothelial (J82, RT4), prostatic (PC3) and breast (MX-1 and HCC 1806), colorectal (HT-29) and ovarian (SK-OV-3 and OVCAR-3) were grown on 96 well plates to ˜60% confluence, the cells were starved for 24 h in culture medium containing 0.5% FBS. […] Cell viability was measured using CellTiter 96 aqueous one solution kit (Promega). […]
SMILES,"Relative inhibitory potency, Urothelial J82 (J82 cells)","Relative inhibitory potency, Pancreatic CFPAC-1 (CFPAC-1 cells)","Relative inhibitory potency, Lung HCC827 (HCC827 cells)","Relative inhibitory potency, Stomach KATOIII (KATOIII cells)",Inhibitory effect on the release of GH compared with MIA-602 (rat pituitary cells),"Relative inhibitory potency, Stomach N87 (NCI-N87 cells)","Relative inhibitory potency, Pancreatic Panc-1 (PANC-1 cells)",Spare respiratory capacity ([1]; 5 μM),"Basal oxygen consumption / basal respiration ([1]; 5 μM, compared to vehicle)","Maximal, uncoupled respiration after FCCP ([1]; 5 μM, compared to vehicle)",Non-mitochondrial respiration after antimycin A and rotenone ([1]; 1 and 5 μM),"In vitro relative inhibitory potency in comparison to MIA-602, CFPAC-1 (CFPAC-1 cells; Table 3B)","In vitro relative inhibitory potency in comparison to MIA-602, HCC827 (HCC827 cells; Table 3B)","Relative inhibitory potency, Prostatic PC3 (PC3 cells)","In vitro relative inhibitory potency in comparison to MIA-602, MX-1 (MX-1 cells; Table 3B)","Relative inhibitory potency, Breast MX-1 (MX-1 cells; relative to MIA602 = 1, Table 3A)","In vitro relative inhibitory potency in comparison to MIA-602, NCI-N87 (NCI-N87 cells; Table 3B)","In vitro relative inhibitory potency in comparison to MIA-602, HT-29 (HT-29 cells)"
"CCCC[C@H](NC(=O)[C@@H](NC(=O)[C@H](CC(=O)O)NC(=O)[C@H](CCC(N)=O)NC(=O)[C@H](CC(C)C)NC(=O)[C@H](CC(C)C)NC(=O)[C@H](CCCCN)NC(=O)[C@H](CCCNC(=N)N)NC(=O)[C@H](C)NC(=O)[C@H](CO)NC(=O)[C@H](CC(C)C)NC(=O)[C@H](CCC(N)=O)NC(=O)[C@H](CC)NC(=O)[C@H](CC(C)C)NC(=O)[C@@H](NC(=O)[C@H](CCCCN)NC(=O)[C@H](CCCNC(=N)N)NC(=O)[C@H](Cc1ccc(OC)cc1)NC(=O)[C@H](CCCCNC(=N)N)NC(=O)[C@H](C)NC(=O)[C@@H](NC(=O)[C@H](Cc1c(F)c(F)c(F)c(F)c1F)NC(=O)[C@@H](NC(=O)[C@H](C)NC(=O)[C@H](CC(=O)O)NC(=O)[C@@H](CCCNC(=N)N)NC(=O)[C@H](Cc1ccc(O)cc1)NC(=O)CCCCCCCCCCCNC(=O)Cc1c(F)c(F)c(F)c(F)c1F)[C@@H](C)CC)[C@@H](C)O)C(C)C)[C@@H](C)CC)C(=O)N[C@H](CCCNC(=N)N)C(=O)N[C@@H](CCCCNC(=N)N)C(=O)NC [AVR-235] ({Phenylacetyl(2,3,4,5,6-F5)-12Ado}-Y[dR]DAI[Phe(F5)]TA[hArg]Y(Me)RKVL[Abu]QLSARKLLQDI[Nle][dR][hArg]-NHMe)",1.518,1.399,1.506,1.220,higher inhibitory effects than MIA-602,2.911,1.139,–,–,–,–,–,–,–,–,–,–,–
"CCCC[C@H](NC(=O)[C@@H](NC(=O)[C@H](CC(=O)O)NC(=O)[C@H](CCC(N)=O)NC(=O)[C@H](CC(C)C)NC(=O)[C@H](CC(C)C)NC(=O)[C@H](CCCN)NC(=O)[C@H](Cc1c[nH]cn1)NC(=O)[C@H](C)NC(=O)[C@H](CO)NC(=O)[C@H](CC(C)C)NC(=O)[C@H](CCC(N)=O)NC(=O)[C@H](CC)NC(=O)[C@H](CC(C)C)NC(=O)[C@@H](NC(=O)[C@H](CCCN)NC(=O)[C@H](Cc1c[nH]cn1)NC(=O)[C@H](Cc1ccc(OC)cc1)NC(=O)[C@H](CCCCNC(=N)N)NC(=O)[C@H](C)NC(=O)[C@@H](NC(=O)[C@H](Cc1c(F)c(F)c(F)c(F)c1F)NC(=O)[C@@H](NC(=O)[C@H](C)NC(=O)[C@H](CC(=O)O)NC(=O)[C@@H](CCCNC(=N)N)NC(=O)[C@H](Cc1ccc(O)cc1)NC(=O)CCCCCCCCCCCNC(=O)Cc1ccccc1)[C@@H](C)CC)[C@@H](C)O)C(C)C)[C@@H](C)CC)C(=O)N[C@H](CCCNC(=N)N)C(=O)N[C@@H](CCCCNC(=N)N)C(N)=O [MIA-602, PhAC-Ada, Tyr D-Arg, Asp, Ala, Ile, 5FPhe, Thr, Ala, Har, Tyr(Me), His, Orn, Val, Leu, Abu, Gin, Leu, Ser, Ala, His, Orn, Leu, Leu, Gin, Asp, Ile, Nle, D-Arg, Har NH2, reference compound] ({PhAc-12Ado}-Y[dR]DAI[Phe(F5)]TA[hArg]Y(Me)H[Orn]VL[Abu]QLSAH[Orn]LLQDI[Nle][dR][hArg]-NH2)",1,1,1,1,–,1,1,increased,increased basal oxygen consumption,increased,appeared to increase non-mitochondrial respiration,1,1,1,1,1,1,1

# Source: patent publication US11993640B2, “Treating inflammatory lung disease” (United States Government as represented by the Department …, priority 2019, dated 2024)
